This test concerns NLRP3 inflammasome. Put plainly: Caspase-1 activation in bone marrow-derived macrophages treated with LPS and ATP (immunoblot). Format: cell-based. Particulars: primary mouse BMDM; LPS and ATP stimulation. As for the experimental part:
Western blotting. Cells and tissue were homogenized in RIPA buffer (Sigma-Aldrich) with protease and phosphatase inhibitors (Roche) or lysed directly in Laemmli buffer. Protein concentration was determined using Pierce BCA Protein Assay Kit (Thermo Fisher Scientific). Equal quantities of protein (10-50 μg) prepared in Laemmli buffer were resolved by SDS-PAGE on NOVEX® Tris-Glycine Gels (Invitrogen), or MINI-PROTEAN® TGX™ Precast Protein Gels (Bio-Rad Laboratories, Inc., Hercules, Calif., United States of America) and transferred onto Immobilon-FL PVDF membranes (0.2 or 0.45 μm; MilliporeSigma, Burlington, Mass., United States of America). The transferred membranes were blocked in ODYSSEY® Blocking Buffer (PBS) for 1 hour at room temperature and then incubated with primary antibody at 4° C. overnight. Immunoreactive bands were visualized using species-specific secondary antibodies conjugated with IRDYE®. The blot images were captured on ODYSSEY® imaging systems. […]
(In general: A western blot detects proteins with antibodies after separation by electrophoresis.)

Consider `CC(C)Nc1cccnc1N1CCN(C(=O)c2cc3cc(NS(C)(=O)=O)ccc3[nH]2)CC1` [DLV, delavirdine], for which the “caspase-1 activation / NLRP3 inflammasome activation” value is “did not inhibit NLRP3 inflammasome activation”.
With `O=C1Nc2ccc(Cl)cc2[C@@](C#CC2CC2)(C(F)(F)F)O1` [EFV, efavirenz], the “caspase-1 activation / NLRP3 inflammasome activation” value is “did not inhibit NLRP3 inflammasome activation”.
The result for `Cc1ccnc2c1NC(=O)c1cccnc1N2C1CC1` [NVP, nevirapine] reads “does not inhibit”.
